# Laboratory results: patent publication US6737383B1, “Herbicidal oxadiazolidines” (priority 1999, dated 2004)
# How the values were obtained:
# [1] = tested on: duck salad; assay: Test B flood test duck salad; type: in vivo, Heteranthera limosa
# In short: (§1)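 Flood test on plants grown to the 2-leaf stage; treated plants kept in greenhouse twelve to sixteen days, then visually rated against controls on a 0 (no effect) to 10 (complete control) scale.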
# [2] = tested on: soybean; assay: Test B pre/postemergence soybean; type: in vivo, Glycine max
# In short: (§2)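 Test chemicals in a non-phytotoxic solvent mixture with surfactant were sprayed preemergence onto planted seeds and postemergence onto plants 2 to 18 cm tall (1- to 4-leaf stage). After twelve to sixteen days in a greenhouse, injury was visually rated against untreated controls from 0 (no effect) to 10 (complete control).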
# [3] = tested on: cocklebur; assay: Test B pre/postemergence cocklebur; type: in vivo, Xanthium strumarium
# In short: as §2
# [4] = tested on: velvetleaf; assay: Test B pre/postemergence velvetleaf; type: in vivo, Abutilon theophrasti
# In short: as §2
# [5] = tested on: blackgrass; assay: Test B pre/postemergence blackgrass; type: in vivo, Alopecurus myosuroides
# In short: as §2
# [6] = tested on: purple nutsedge; assay: Test B pre/postemergence purple nutsedge; type: in vivo, Cyperus rotundus; conditions: Postemergence
# In short: as §2
# [7] = tested on: smallflower flatsedge; assay: Test B flood test smallflower flatsedge; type: in vivo, Cyperus difformis
# In short: as §1
# [8] = tested on: wheat; assay: Test B pre/postemergence wheat; type: in vivo, Triticum aestivum
# In short: as §2
# [9] = tested on: corn; assay: Test B pre/postemergence corn; type: in vivo, Zea mays
# In short: as §2
# [10] = tested on: bamyardgrass; assay: Test B flood test barnyardgrass; type: in vivo, Echinochloa crus-galli
# In short: as §1
# [11] = tested on: surinam grass; assay: Test B pre/postemergence surinam grass; type: in vivo, Brachiaria decumbens
# In short: as §2
# [12] = tested on: sugar beet; assay: Test B pre/postemergence sugar beet; type: in vivo, Beta vulgaris
# In short: as §2
# [13] = tested on: crabgrass; assay: Test B pre/postemergence crabgrass; type: in vivo, Digitaria sanguinalis
# In short: as §2
# [14] = tested on: bedstraw; assay: Test B pre/postemergence bedstraw; type: in vivo, Galium aparine
# In short: as §2
# [15] = tested on: rape; assay: Test B pre/postemergence rape; type: in vivo, Brassica napus
# In short: as §2
# [16] = tested on: wild oat; assay: Test B pre/postemergence wild oat; type: in vivo, Avena fatua
# In short: as §2
# [17] = tested on: rice; assay: Test B flood test rice; type: in vivo, Oryza sativa
# In short: as §1
# [18] = Rate 62 g/ha, headed Pre-emergence (flood test species), scale 0 to 10 (0 no effect, 10 complete control)
# [19] = Rate 125 g/ha, Pre-emergence, flood test species, scale 0 to 10 where 0 is no effect and 10 is complete control
# [20] = Rate 250 g/ha, Pre-emergence, flood-test species, scale 0 to 10, 0 is no effect, 10 is complete control
# [21] = Rate 500 g/ha, Pre-emergence, flood test species, scale 0 to 10 (0 no effect, 10 complete control)
# [22] = Preemergence, Rate 62 g/ha, scale of 0 to 10 where 0 is no effect and 10 is complete control
# [23] = Preemergence, Rate 250 g/ha, scale of 0 to 10 where 0 is no effect and 10 is complete control
# [24] = Preemergence, Rate 500 g/ha, scale of 0 to 10 where 0 is no effect and 10 is complete control
# [25] = Rate 62 g/ha, Postemergence, scale of 0 to 10 where 0 is no effect and 10 is complete control
# [26] = Rate 125 g/ha, Postemergence, scale 0 to 10
# [27] = Rate 125 g/ha, Preemergence, scale of 0 to 10 where 0 is no effect and 10 is complete control
# [28] = Rate 500 g/ha, Postemergence, scale 0 to 10, 0 no effect, 10 complete control
structure (smiles),measurement,setting,value
COCCOCn1c(=O)on(C(=O)N(c2ccc(F)cc2)C(C)C)c1=O [Compound 220],Ducksalad plant response rating,[1]; [18],0
same,Ducksalad plant response rating,[1]; [19],0
same,Ducksalad plant response rating,[1]; [20],0
same,Ducksalad plant response rating,[1]; [21],0
same,Soybean plant response rating,[2]; [22],0
same,Soybean plant response rating,[2]; [23],0
same,"Plant response rating, Soybean",[2]; [24],3
same,Soybean plant response rating,[2]; [25],5
same,Soybean plant response rating,[2]; [26],5
same,Soybean plant response rating,[2]; [27],0
same,"Plant response rating (0 to 10; 0 is no effect, 10 is complete control), Soybean","[2]; Rate 250 g/ha, Postemergence",7
same,Soybean plant response rating,[2]; [28],7
same,Cocklebur plant response rating,[3]; [22],0
same,"Plant response rating, Cocklebur",[3]; [24],5
same,Cocklebur plant response rating,[3]; [25],0
same,Cocklebur plant response rating,[3]; [26],0
same,Cocklebur plant response rating,[3]; [27],0
same,"Plant response rating (0 to 10; 0 is no effect, 10 is complete control), Cocklebur","[3]; Rate 250 g/ha, Postemergence",3
same,Cocklebur plant response rating,[3]; [28],5
same,Velvetleaf plant response rating,[4]; [22],1
same,Velvetleaf plant response rating,[4]; [23],4
same,"Plant response rating, Velvetleaf",[4]; [24],8
same,Velvetleaf plant response rating,[4]; [25],0
same,Velvetleaf plant response rating,[4]; [26],0
same,Velvetleaf plant response rating,[4]; [27],3
same,"Plant response rating (0 to 10; 0 is no effect, 10 is complete control), Velvetleaf","[4]; Rate 250 g/ha, Postemergence",2
same,Velvetleaf plant response rating,[4]; [28],2
same,Blackgrass plant response rating,[5]; [22],8
same,Blackgrass plant response rating,[5]; [23],10
same,"Plant response rating, Blackgrass",[5]; [24],10
same,Blackgrass plant response rating,[5]; [25],5
same,Blackgrass plant response rating,[5]; [26],7
same,Blackgrass plant response rating,[5]; [27],9
same,"Plant response rating (0 to 10; 0 is no effect, 10 is complete control), Blackgrass","[5]; Rate 250 g/ha, Postemergence",8
same,Blackgrass plant response rating,[5]; [28],8
same,Nutsedge plant response rating,"[6]; Rate 62 g/ha, scale of 0 to 10 where 0 is no effect and 10 is complete control",0
same,Nutsedge plant response rating,"[6]; Rate 125 g/ha, scale 0 to 10",0
same,"Plant response rating (0 to 10; 0 is no effect, 10 is complete control), Nutsedge",[6]; Rate 250 g/ha,0
same,Nutsedge plant response rating,"[6]; Rate 500 g/ha, scale 0 to 10, 0 no effect, 10 complete control",0
same,S. Flatsedge plant response rating,[7]; [18],0
same,S. Flatsedge plant response rating,[7]; [19],0
same,S. Flatsedge plant response rating,[7]; [20],0
same,S. Flatsedge plant response rating,[7]; [21],0
same,Wheat plant response rating,[8]; [22],6
same,Wheat plant response rating,[8]; [23],8
same,"Plant response rating, Wheat",[8]; [24],8
same,Wheat plant response rating,[8]; [25],3
same,Wheat plant response rating,[8]; [26],4
same,Wheat plant response rating,[8]; [27],7
same,"Plant response rating (0 to 10; 0 is no effect, 10 is complete control), Wheat","[8]; Rate 250 g/ha, Postemergence",6
same,Wheat plant response rating,[8]; [28],6
same,Corn plant response rating,[9]; [22],0
same,Corn plant response rating,[9]; [23],5
same,"Plant response rating, Corn",[9]; [24],7
same,Corn plant response rating,[9]; [25],0
same,Corn plant response rating,[9]; [26],2
same,Corn plant response rating,[9]; [27],3
same,"Plant response rating (0 to 10; 0 is no effect, 10 is complete control), Corn","[9]; Rate 250 g/ha, Postemergence",6
same,Corn plant response rating,[9]; [28],6
same,Barnyardgrass plant response rating,[10]; [18],0
same,Barnyardgrass plant response rating,[10]; [19],0
same,Barnyardgrass plant response rating,[10]; [20],2
same,Barnyardgrass plant response rating,[10]; [21],3
same,B. signalgrass plant response rating,[11]; [22],7
same,B. signalgrass plant response rating,"[11]; Preemergence, Rate 250 g/ha, scale 0 to 10, 0 is no effect, 10 is complete control",8
same,"Plant response rating, B. signalgrass",[11]; [24],8
same,B. signalgrass plant response rating,[11]; [25],2
same,B. signalgrass plant response rating,"[11]; Rate 125 g/ha, Postemergence, scale 0 (no effect) to 10 (complete control)",7
same,B. signalgrass plant response rating,[11]; [27],7
same,"Plant response rating (0 to 10; 0 is no effect, 10 is complete control), B. signalgrass","[11]; Rate 250 g/ha, Postemergence",8
same,B. signalgrass plant response rating,[11]; [28],8
same,Sugarbeets plant response rating,[12]; [22],5
same,Sugarbeets plant response rating,[12]; [23],8
same,"Plant response rating, Sugarbeets",[12]; [24],8
same,Sugarbeets plant response rating,[12]; [25],0
same,Sugarbeets plant response rating,[12]; [26],0
same,Sugarbeets plant response rating,[12]; [27],6
same,"Plant response rating (0 to 10; 0 is no effect, 10 is complete control), Sugarbeets","[12]; Rate 250 g/ha, Postemergence",2
same,Sugarbeets plant response rating,[12]; [28],2
same,Crabgrass plant response rating,[13]; [22],7
same,Crabgrass plant response rating,[13]; [23],8
same,"Plant response rating, Crabgrass",[13]; [24],10
same,Crabgrass plant response rating,[13]; [25],3
same,Crabgrass plant response rating,[13]; [26],5
same,Crabgrass plant response rating,[13]; [27],7
same,"Plant response rating (0 to 10; 0 is no effect, 10 is complete control), Crabgrass","[13]; Rate 250 g/ha, Postemergence",7
same,Crabgrass plant response rating,[13]; [28],9
same,Bedstraw plant response rating,[14]; [22],0
same,Bedstraw plant response rating,[14]; [23],10
same,"Plant response rating, Bedstraw",[14]; [24],10
same,Bedstraw plant response rating,[14]; [25],6
same,Bedstraw plant response rating,[14]; [26],8
same,Bedstraw plant response rating,[14]; [27],4
same,"Plant response rating (0 to 10; 0 is no effect, 10 is complete control), Bedstraw","[14]; Rate 250 g/ha, Postemergence",8
same,Bedstraw plant response rating,[14]; [28],9
same,Rape plant response rating,[15]; [22],1
same,Rape plant response rating,[15]; [23],8
same,"Plant response rating, Rape",[15]; [24],8
same,Rape plant response rating,[15]; [25],0
same,Rape plant response rating,[15]; [26],0
same,Rape plant response rating,[15]; [27],6
same,"Plant response rating (0 to 10; 0 is no effect, 10 is complete control), Rape","[15]; Rate 250 g/ha, Postemergence",3
same,Rape plant response rating,[15]; [28],4
same,Wild oats plant response rating,[16]; [22],3
same,Wild oats plant response rating,[16]; [23],7
same,"Plant response rating, Wild oats",[16]; [24],8
same,Wild oats plant response rating,[16]; [25],0
same,Wild oats plant response rating,[16]; [26],0
same,Wild oats plant response rating,[16]; [27],5
same,"Plant response rating (0 to 10; 0 is no effect, 10 is complete control), Wild oats","[16]; Rate 250 g/ha, Postemergence",2
same,Wild oats plant response rating,[16]; [28],2
same,Rice plant response rating,[17]; [18],0
same,Rice plant response rating,[17]; [19],0
same,Rice plant response rating,[17]; [20],0
same,Rice plant response rating,[17]; [21],0
